The test system of data set [1] is primary human cholangiocytes. Kind of data set: Co-treatment with V-ATPase inhibitor bafilomycin in cholangiocytes.
The next data set concerns LC3B. Kind of data set: LC3B lipidation immunoblot in primary cholangiocytes. The settings on record: 3 h, 300 μM. The format is cell-based, human. A general note: Immunoblotting shows a protein as a band on a membrane.

The record followed here is publication PMC12727973, “Off-target autophagy disruption associated with a novel liver toxicity in dogs for a highly basic heterobifunctional protein degrader” (Frontiers in Pharmacology, 2025).

Procedure for LC3B: Cells were treated with compounds at concentrations indicated for 3 h (immunoblotting), 18 h (proteomics), or 48 h (compound uptake) using DMSO vehicle content normalized across wells, up to 0.2%. 48 h was selected for compound uptake experiments to match the cell viability assay conditions; 18 h was selected for the initial assessment of proteome-wide changes leading to and accompanying cytotoxicity; 3 h to observe pathway changes with minimal confounding effects of cytotoxicity. […] Following compound incubation, cells were washed twice with phosphate buffer saline (PBS) and, except for compound uptake studies, lifted off plates with Accumax (Sigma-Aldrich A7089). Cells were pelleted at 700 × g for 5 min, washed with PBS, and pellets were stored at −80 °C for later sample preparation.
Lysate corresponding to 20 µg protein was combined with LDS Buffer (1X final, Thermo #NP0007) and 1 M dithiothreitol stock (100 mM final), heat denatured at 95 °C for 10 min, and loaded into the wells of a NuPage Bis-Tris Mini Protein Gel (Thermo #NP0321). Proteins were separated at 200 V for 30–40 min using a XCell SureLock Mini-Cell (Thermo #EI0001) and MES SDS Running Buffer (Thermo #NP0002).
Proteins were next transferred to a PVDF membrane (Thermo #IB24002) with an iBlot 2 Gel Transfer Device (Invitrogen #IB21001) using the standard 7 min method. […]

With `CO/C1=C\C(C)=C\[C@@H](C)[C@@H](O)[C@@H](C)C/C(C)=C/C=C/[C@H](OC)[C@@H]([C@@H](C)[C@@H](O)[C@H](C)[C@@]2(O)C[C@@H](O)[C@H](C)[C@@H](C(C)C)O2)OC1=O` [BafA1, Bafilomycin A1], the Cytotoxicity alone result in data set [1] (BafA1 alone, longer timepoints) is “cytotoxic at longer timepoints”. The “Effect on Compound X-induced cytotoxicity” value in data set [1] (co-treatment with Compound X, <24 h) is “fully rescued compound-induced cytotoxicity”. For the same compound, in data set [1] (co-treatment, 100 nM or 2.5 nM BafA1, 3 h), the “Effect on LC3B lipidation by Compound X” value is on record as “reduced the LC3B lipidation by Compound X”.
Take `CCN(CC)CCCC(C)Nc1ccnc2cc(Cl)ccc12` (stereo not shown) [CQ, chloroquine diphosphate]: the LC3B-II/LC3B-I with LC3B amounted to 2.1.
